Experimental data published in article PMC5247395 (EJNMMI Research, 2017).

Assays:
[1] = test system: PC-3 PIP/flu tumor-bearing mice; test: Biodistribution in PC-3 PIP/flu tumor-bearing mice; conditions: i.v.; for PC-3 flu Tumor: PSMA^neg xenograft; for PC-3 PIP Tumor: PSMA^pos xenograft
Description: In vivo experiments were approved by the local veterinarian department and conducted in accordance with the Swiss law of animal protection. All mice were obtained from Charles River Laboratories (Sulzfeld, Germany), at the age of 5–6 weeks. Female, athymic nude Balb/c mice were subcutaneously inoculated with PC-3 PIP cells (6 × 10^6 cells in 100 μL Hank’s balanced salt solution (HBSS) with Ca^2+/Mg^2+) on the right shoulder and with PC-3 flu cells (5 × 10^6 cells in 100 μL HBSS with Ca^2+/Mg^2+) on the left shoulder 2 weeks before the performance of the experiments.
Mice were sacrificed at different time points post injection (p.i.) of the radioligands. Selected tissues and organs were collected, weighed and measured using a γ-counter. The results were decay-corrected and listed as a percentage of the injected activity per gram of tissue mass (% IA/g).

[2] = n-octanol/PBS distribution coefficient (shake-flask); format: physicochemical; conditions: n-octanol/PBS pH 7.4, shake-flask
Description: The distribution coefficients (logD values) of the radioligands were determined by a shake-flask method using liquid-liquid extraction followed by phase separation, as previously reported (Additional file 1). In brief, the PSMA ligands were labeled at a specific activity of 5 MBq/nmol. […] The vials were vortexed vigorously for 1 min and then centrifuged for 6 min for phase separation. The concentration of radioactivity in a defined volume of each layer was measured in a γ-counter (Perkin Elmer, Wallac Wizard 1480). The distribution coefficients were expressed as the logarithm of the ratio of counts per minute (cpm) measured in the n-octanol phase to the cpm measure in the PBS phase. The values are reported as the average of at least three independent measurements (± standard deviation, SD), each performed with five replicates. Data were analyzed for significance using a one-way ANOVA test (GraphPad Prism software, version 7). A p value of <0.05 was considered as statistically significant.

[3] = biological target: T1, PSMA (Homo sapiens, UniProt Q04609); test: Saturation binding assay on PC-3 PIP cells (PSMA affinity, KD)
T1 construct: expressed in transfected cells; host or cells: PC-3 PIP cells (PSMA-positive subline of human PC-3 prostate cancer cells), provided by Prof; Martin Pomper, Johns Hopkins
Description: Determination of the PSMA affinity was performed by saturation binding assays using PC-3 PIP cells and different concentrations of ^nat/44Sc-, ^nat/177Lu-, ^nat/68Ga-PSMA-617, or ^nat/68Ga-PSMA-11, respectively (Additional file 1).
Determination of the KD values was performed by saturation binding assays using PSMA^pos PC-3 PIP cells. After successful radiolabeling of the PSMA ligands, a 2.5-fold molar excess of the corresponding cold metal was added and the reaction mixture was incubated for another 10 min at 95 °C. Quality control was performed again after reaction of the radioligands with the “cold” metal as described in the main manuscript.
The cells were seeded in 48-well-plates (8 x 10^5 cells in 500 uL RPMI medium/well) allowing adhesion and growth overnight at 37 °C and 5% CO2. For the entire experiment, the well-plates were kept on ice. After removal of the supernatant, the cells were washed once with ice-cold PBS pH 7.4 prior to the addition of different concentrations (1 nM-2 µM) of either ^nat/44Sc-, ^nat/177Lu-, ^nat/67/68Ga-PSMA-617 or ^nat/67/68Ga-PSMA-11 in ice-cold RPMI medium without supplements. For the determination of non-specific binding, cell samples were incubated with 2-phosphonomethyl pentanedioic acid (2-PMPA, 200 μM). The well-plates were incubated for 30 min at 4 °C. Then, the supernatants were removed and the cells washed twice with ice-cold PBS followed by addition of NaOH (1 M, 600 µL) to each well. The cell suspensions were transferred to 4 mL tubes for measurement in a γ-counter (Wallac Wizard 1480, Perkin Elmer). The KD values were determined by plotting specific-binding (total binding minus unspecific binding) against the molar concentration of the added radioligands followed by nonlinear regression analysis using GraphPad Prism 7 software.

T1 sequence (Q04609 whole entry): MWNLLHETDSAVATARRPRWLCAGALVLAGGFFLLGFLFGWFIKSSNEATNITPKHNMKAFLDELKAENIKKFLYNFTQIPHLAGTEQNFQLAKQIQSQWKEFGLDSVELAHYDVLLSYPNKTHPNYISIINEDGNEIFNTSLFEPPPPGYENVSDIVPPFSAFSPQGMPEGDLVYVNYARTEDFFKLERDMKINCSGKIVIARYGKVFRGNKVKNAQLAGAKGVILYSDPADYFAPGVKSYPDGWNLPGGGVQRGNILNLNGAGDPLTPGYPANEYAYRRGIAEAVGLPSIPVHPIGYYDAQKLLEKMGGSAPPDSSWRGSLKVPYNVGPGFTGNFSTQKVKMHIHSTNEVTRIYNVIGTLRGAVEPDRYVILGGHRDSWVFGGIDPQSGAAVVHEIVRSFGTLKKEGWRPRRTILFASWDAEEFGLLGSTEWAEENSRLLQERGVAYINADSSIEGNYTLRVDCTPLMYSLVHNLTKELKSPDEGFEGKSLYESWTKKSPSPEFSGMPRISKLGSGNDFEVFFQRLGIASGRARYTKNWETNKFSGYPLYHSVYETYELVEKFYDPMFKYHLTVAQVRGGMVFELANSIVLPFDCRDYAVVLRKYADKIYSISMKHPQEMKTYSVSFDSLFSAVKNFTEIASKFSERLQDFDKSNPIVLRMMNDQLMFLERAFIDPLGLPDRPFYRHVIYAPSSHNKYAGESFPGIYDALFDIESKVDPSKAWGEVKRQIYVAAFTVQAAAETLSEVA

## O=C([O-])CN1CCN(CC(=O)[O-])CCN(CC(=O)NCC2CCC(C(=O)NC(Cc3ccc4ccccc4c3)C(=O)NCCCCC(NC(=O)NC(CCC(=O)O)C(=O)O)C(=O)O)CC2)CCN(CC(=O)[O-])CC1.[44Sc+3] (centres unmarked) [^44Sc-PSMA-617]
[1]; 15 min p.i.
  Blood: 6.76 ± 0.28 % IA/g
  Bone: 2.75 ± 0.73 % IA/g
  Heart: 2.79 ± 0.31 % IA/g
  Intestines: 1.89 ± 0.13 % IA/g
  Kidneys: 37.7 ± 0.82 % IA/g
  Liver: 1.98 ± 0.19 % IA/g
  Lung: 5.24 ± 0.30 % IA/g
  Muscle: 1.37 ± 0.11 % IA/g
  Salivary glands: 2.27 ± 0.22 % IA/g
  Spleen: 3.06 ± 0.18 % IA/g
  Stomach: 2.25 ± 0.16 % IA/g
  PC-3 flu Tumor: 2.14 ± 0.13 % IA/g
  PC-3 PIP Tumor: 36.5 ± 7.44 % IA/g
[1]; 30 min p.i.
  Blood: 2.52 ± 0.43 % IA/g
  Bone: 0.92 ± 0.19 % IA/g
  Heart: 1.31 ± 0.14 % IA/g
  Intestines: 1.05 ± 0.32 % IA/g
  Kidneys: 27.8 ± 3.29 % IA/g
  Liver: 0.80 ± 0.05 % IA/g
  Lung: 2.06 ± 0.25 % IA/g
  Muscle: 1.08 ± 0.20 % IA/g
  Salivary glands: 1.21 ± 0.14 % IA/g
  Spleen: 2.20 ± 0.67 % IA/g
  Stomach: 0.91 ± 0.17 % IA/g
  PC-3 flu Tumor: 1.51 ± 0.18 % IA/g
  PC-3 PIP Tumor: 44.4 ± 7.51 % IA/g
[1]; 2 h p.i.
  Bone: 0.26 ± 0.13 % IA/g
  Heart: 0.36 ± 0.04 % IA/g
  Intestines: 0.15 ± 0.04 % IA/g
  Kidneys: 5.97 ± 0.90 % IA/g
  Liver: 0.22 ± 0.03 % IA/g
  Lung: 0.37 ± 0.01 % IA/g
  Muscle: 0.36 ± 0.11 % IA/g
  Salivary glands: 0.36 ± 0.07 % IA/g
  Spleen: 0.81 ± 0.34 % IA/g
  Stomach: 0.20 ± 0.05 % IA/g
  PC-3 flu Tumor: 0.32 ± 0.16 % IA/g
  PC-3 PIP Tumor: 46.7 ± 4.36 % IA/g
[1]; 4 h p.i.
  PC-3 flu Tumor: 0.40 ± 0.08 % IA/g
  PC-3 PIP Tumor: 51.9 ± 4.05 % IA/g
[1]; 6 h p.i.
  Blood: 0.27 ± 0.02 % IA/g
  Bone: 0.65 ± 0.21 % IA/g
  Heart: 0.63 ± 0.10 % IA/g
  Intestines: 0.13 ± 0.01 % IA/g
  Kidneys: 3.09 ± 0.58 % IA/g
  Liver: 0.31 ± 0.02 % IA/g
  Lung: 0.51 ± 0.06 % IA/g
  Muscle: 0.94 ± 0.08 % IA/g
  Salivary glands: 0.75 ± 0.17 % IA/g
  Spleen: 0.90 ± 0.03 % IA/g
  Stomach: 0.39 ± 0.07 % IA/g
  PC-3 flu Tumor: 0.24 ± 0.02 % IA/g
  PC-3 PIP Tumor: 52.0 ± 8.42 % IA/g
[2]
  LogD values: −4.21 ± 0.04
[3]; 30 min at 4 °C, saturation binding
  Kd: 0.033 ± 0.012 µM
[3]; inverse molar ratio of average KD values, ^177Lu-PSMA-617 set to 1
  Relative PSMA-binding affinity: 1.2
